Reference: patent US20060069132A1, “Azolecarboxamide herbicides” (priority 2004, published 2006)

Legend:
[1] = tested on: corn (ZEAMD); assay: Test J Compounds 2 and 6 alone and in combination with other herbicides, foliage spray; type: in vivo, Zea mays; set-up: key: percentage herbicidal effect (observed); conditions: applied alone
Method in brief: (§1)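 Visual control rating (0 = no effect, 100 = complete control), mean of three replicates, scored 15 days after a 541 L/ha foliar spray of 1- to 4-leaf plants. Mixture expectations derived with Colby's Equation from the single-component effects at matching rates.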

[2] = tested on: wheat (TRZAS); assay: as above; type: in vivo, Triticum aestivum; set-up: key: 0 = no effect, 100 = complete control; conditions: applied alone
Method in brief: as §1

[3] = tested on: large crabgrass (DIGSA); assay: as above; type: in vivo, Digitaria sanguinalis; set-up: key to DIGSA Obsd.: 0 = no effect, 100 = complete control; conditions: for DIGSA Obsd.: applied alone; for observed effect of mixture compared with additive effect expected from Colby's Equation: crabgrass, foliage spray, 15 days after treatment
Method in brief: as §1

[4] = tested on: blackgrass (ALOMY); assay: as above; type: in vivo, Alopecurus myosuroides; set-up: key: 0 = no effect, 100 = complete control; conditions: applied alone
Source text: (§2) Colby's Equation was used to calculate the expected additive herbicidal effect of the mixtures of Compound 6 with Harmony® Extra (i.e. a 2:1 mixture by weight of thifensulfuron-methyl and tribenuron-methyl). Colby's Equation (Colby, S. R. “Calculating Synergistic and Antagonistic Responses of Herbicide Combinations,” Weeds, 15(1), pp 20-22 (1967)) calculates the expected additive effect of herbicidal mixtures, and for two active ingredients is of the form: Pa+b=Pa+Pb−(PaPb/100) wherein • Pa+b is the percentage effect of the mixture expected from additive contribution of the individual components, • Pa is the observed percentage effect of the first active ingredient at the same use rate as in the mixture, and • Pb is the observed percentage effect of the second active ingredient at the same use rate as in the mixture.
(§3) Seeds of test plants consisting of barnyardgrass (ECHCG; Echinochloa crus-galli (L.) Beauv.), blackgrass (ALOMY; Alopecurus myosuroides Huds.), Surinam grass (BRADC; Urochloa decumbens (Staph) R. D. Webster, previously named Brachiaria decumbens Stapf), cocklebur (XANST, Xanthium strumarium L.), corn (ZEAMD, Zea mays L. cv. ‘Pioneer 33G26’), large crabgrass (DIGSA, Digitaria sanguinalis (L.) Scop.), giant foxtail (SETFA, Setaria faberi Herrm.), lambsquarters (CHEAL, Chenopodium album L.), morningglory (IPOCO, Ipomoea coccinea L.), pigweed (AMARE, Amaranthus retroflexus L.), velvetleaf (ABUTH, Abutilon theophrasti Medik.) wheat (TRZAS, Triticum aestivum L. cv. ‘Recital’) and wild oat (AVEFA, Avena fatua L.) were planted in Redi-Earth® planting medium (Scotts Company, 14111 Scottslawn Road, Marysville, Ohio 43041) comprising spaghnum peat moss and vermiculite. Seeds of small-seeded species were planted about 1 cm deep; larger seeds were planted about 2.5 cm deep. Plants were grown in a greenhouse using supplemental lighting to maintain a photoperiod of about 14 hours; daytime and nighttime temperatures were about 24-30° C. and 22-25° C., respectively. Balanced fertilizer was applied through the watering system. The plants were grown for 7 to 11 days so that at time of treatment the plants ranged in height from 2 to 18 cm (1- to 4-leaf stage). Treatments consisted of Compounds 2 and 6 (technical material), atrazine (90DF), terbacil (Sinbar® 80DF), hexazinone (Velpar® 75WG), diuron (Karmex® 80WP) and paraquat (Gramoxone® Extra, 37%) alone and in combination, suspended or dissolved in an aqueous solvent comprising a nonionic surfactant and applied as a foliage spray using a volume of 541 L/ha. Each treatment was triply replicated. […] Treated plants and controls were maintained in the greenhouse and watered as needed with care to not wet the foliage for the first 24 hours after treatment. The effects on the plants 15 days after treatment were visually compared to untreated controls. Plant response ratings, listed in Table J as the means of the thee replicates, are based on a scale of 0 to 100 where 0 is no effect and 100 is complete control. Also listed in Table J are the expected effects for the mixtures calculated using Colby's Equation.

[5] = tested on: pigweed (AMARE); assay: as above; type: in vivo, Amaranthus retroflexus; set-up: key: 0 = no effect, 100 = complete control; conditions: applied alone
Method in brief: as §1

[6] = tested on: Surinam grass (BRADC); assay: as above; type: in vivo, Urochloa decumbens; set-up: key: 0 = no effect, 100 = complete control; conditions: applied alone
Source text: as §2, §3

[7] = tested on: giant foxtail (SETFA); assay: as above; type: in vivo, Setaria faberi; set-up: key: 0 = no effect, 100 = complete control; conditions: applied alone
Method in brief: as §1

[8] = tested on: barnyardgrass (ECHCG); assay: as above; type: in vivo, Echinochloa crus-galli; set-up: key: percentage herbicidal effect (observed); conditions: applied alone
Source text: as §2, §3

[9] = tested on: morningglory (IPOCO); assay: as above; type: in vivo, Ipomoea coccinea; set-up: key: 0 = no effect, 100 = complete control; conditions: applied alone
Method in brief: as §1

[10] = tested on: wild oat (AVEFA); assay: as above; type: in vivo, Avena fatua; set-up: key: 0 = no effect, 100 = complete control; conditions: applied alone
Source text: as §2, §3

[11] = tested on: velvetleaf (ABUTH); assay: as above; type: in vivo, Abutilon theophrasti; set-up: key: 0 = no effect, 100 = complete control; conditions: applied alone
Method in brief: as §1

[12] = tested on: wild buckwheat; assay: Test F pre-/postemergence herbicide test; type: in vivo, Polygonum convolvulus; conditions: 125 g ai/ha
Source text: Seeds of plant species selected from annual blugrass (Poa annua L.), blackgrass (Alopecurus myosuroides Huds.), catchweed bedstraw (Gallium aparine L.), common chickweed (Stellaria media (L.) Vill./Cyr.), downy bromegrass (Bromus tectorum L.), green foxtail (Setaria viridis (L.) Beauv.), Italian ryegrass (Lolium multiflorum Lam.), kochia (Kochia scoparia (L.). Schrad.), lambsquarters (Chenopodium album L.), littleseed canarygrass (Phalaris minor Retz.), pigweed (Amaranthus retroflexus L.), Russian thistle (Salsola kali L. ssp. Ruthenica (Iljin) Soo), wild buckwheat (Polygonum convolvulus L.), wild mustard (Sinapis arvensis L.), wild oat (Avena fatua L.), windgrass (Apera spica-venti (L.) Beauv.), winter barley (Hordeum vulgare L.), and wheat (Triticum aestivum L.) were planted and treated preemergence with test chemicals formulated in a non-phytotoxic solvent mixture which included a surfactant.
At the same time, plants selected from these crop and weed species were treated with postemergence applications of some of the test chemicals formulated in the same manner. Plants ranged in height from 2 to 18 cm (1- to 4-leaf stage) for postemergence treatments. Treated plants and controls were maintained in a greenhouse for 12 to 14 days, after which time all species were compared to controls and visually evaluated. […]

Q: Which “ZEAMD Obsd.” value ([1]; 62 g a.i./ha) does the source give for `CCNC(=O)c1ccc(F)c(NC(=O)c2cc(C(C)(C)C)nn2CC)c1` [Compound 2, 3-(1,1-dimethylethyl)-1-ethyl-N-[5-[(ethylamino)carbonyl]-2-fluorophenyl]-1H-pyrazole-5-carboxamide] here?
A: 25

Q: What about the “ZEAMD Obsd.” value ([1]; 125 g a.i./ha) of the same compound?
A: 65

Q: What about the “TRZAS Obsd.” value ([2]; 62 g a.i./ha) of the same compound?
A: 8

Q: And the “TRZAS Obsd.” value ([2]; 125 g a.i./ha)?
A: 10

Q: And the “DIGSA Obsd.” value ([3]; 62 g a.i./ha)?
A: 5

Q: What about the “DIGSA Obsd.” value ([3]; 125 g a.i./ha) of the same compound?
A: 15

Q: What about the “observed effect of mixture compared with additive effect expected from Colby's Equation” value ([3]; mixture with diuron) of the same compound?
A: greater than additive

Q: What about the “observed effect of mixture compared with additive effect expected from Colby's Equation” value ([3]; mixture with terbacil) of the same compound?
A: greater than additive

Q: And the “ALOMY Obsd.” value ([4]; 62 g a.i./ha)?
A: 15

Q: What about the “ALOMY Obsd.” value ([4]; 125 g a.i./ha) of the same compound?
A: 13

Q: And the “AMARE Obsd.” value ([5]; 62 g a.i./ha)?
A: 47

Q: And the “AMARE Obsd.” value ([5]; 125 g a.i./ha)?
A: 68

Q: What about the “BRADC Obsd.” value ([6]; 62 g a.i./ha) of the same compound?
A: 8

Q: What about the “BRADC Obsd.” value ([6]; 125 g a.i./ha) of the same compound?
A: 17

Q: What about the “SETFA Obsd.” value ([7]; 62 g a.i./ha) of the same compound?
A: 28

Q: And the “SETFA Obsd.” value ([7]; 125 g a.i./ha)?
A: 32

Q: What about the “ECHCG Obsd.” value ([8]; 62 g a.i./ha) of the same compound?
A: 13

Q: And the “ECHCG Obsd.” value ([8]; 125 g a.i./ha)?
A: 8

Q: And the “IPOCO Obsd.” value ([9]; 62 g a.i./ha)?
A: 17

Q: And the “IPOCO Obsd.” value ([9]; 125 g a.i./ha)?
A: 27

Q: What about the “AVEFA Obsd.” value ([10]; 62 g a.i./ha) of the same compound?
A: 8

Q: And the “AVEFA Obsd.” value ([10]; 125 g a.i./ha)?
A: 15

Q: And the “ABUTH Obsd.” value ([11]; 62 g a.i./ha)?
A: 17

Q: What about the “ABUTH Obsd.” value ([11]; 125 g a.i./ha) of the same compound?
A: 18

Q: How did the “Plant response rating (0-100), Buckwheat, Wild” value ([12]; Postemergence) turn out when `CCc1nn(C(C)(C)C)cc1C(=O)Nc1cc(C(=O)N(CC)CC)ccc1F` [Compound 223] was run?
A: 40

Q: What about the “Plant response rating (0-100), Buckwheat, Wild” value ([12]; Preemergence) of the same compound?
A: 55
